# Assay results as given in PMC6158578, “Optimization and Lead Selection of Benzothiazole Amide Analogs Toward a Novel Antimycobacterial Agent” (Frontiers in Microbiology, 2018).
# Like-named read-outs stand apart in the source and are kept apart here.
# How the values were obtained:
# [1] = test system: E. coli tolC CGSC 5633 (efflux mutant strain); assay: microbe, parasite or virus in culture; assay type: cell-based; conditions: Escherichia coli
# [2] = test system: M. abscessus; set-up: method as in Graham et al., 2018; conditions: SAR of CRS400153 analogs; ref Graham et al., 2018; cited from earlier work
# [3] = test system: E. faecalis ATCC 29212; assay: MIC, spectrum of activity; assay type: cell-based; conditions: Enterococcus faecalis, ATCC29212
# [4] = test system: M. tuberculosis H37Rv mc^2 6206; assay: microbe, parasite or virus in culture; assay type: cell-based; conditions: Mycobacterium tuberculosis
# [5] = test system: M. chelonae 93; assay: MIC, broth microdilution with resazurin (MHB, 3 days); assay type: cell-based; conditions: Mycobacteroides chelonae, 93
# [6] = test system: M. abscessus massiliense 119; assay: as above; assay type: cell-based; conditions: Mycobacteroides abscessus
# [7] = test system: M. fortuitum 41; assay: as above; assay type: cell-based; conditions: Mycolicibacterium fortuitum, 41
# [8] = 50% complement-inactivated human serum
# [9] = test system: M. abscessus ATCC 19977; assay: MIC, broth microdilution with resazurin (MHB, 3 days); assay type: cell-based; conditions: Mycobacteroides abscessus, ATCC19977
# [10] = physchem; assay type: physicochemical; conditions: pH 7.4, aqueous buffer, thermodynamic from solid
# Description: (§1) ADMET assays were performed through NIAID Preclinical Services and Eurofins. Potential for cytotoxicity was monitored in HepG2 cells after 72 h growth in the presence of test compounds, either prepared as 10-point 3-fold serial dilutions or at a fixed 10 μM concentration. Cell viability was measured using the CellTiter-Glo® Luminescent Cell Viability Assay (Promega) or via fluorescent image analysis. Cytotoxicity was expressed as IC50 or as percent reduction of viable cells relative to a reference compound. Metabolic stability of compounds was evaluated via incubation with human liver microsomes at 37°C and quantitative analysis of parent compound by LC-MS/MS in samples removed at 0, 5, 15, 30, and 45 min (Obach, [1999]). For cytochrome P450 (CYP) inhibition assays, compounds were prepared as a 7-point dilution series and incubated with human liver microsomes in buffer containing 2 mM NADPH and probe substrate. […] Thermodynamic solubility of compounds in aqueous media was determined by incubation in 50 mM potassium phosphate buffer (pH 7.4) for 24 h, followed by HPLC-UV detection of compound in the filtrate (Analiza, Cleveland, OH, United States).
# [11] = test system: M. avium 101; assay: MIC, Middlebrook medium (7H9 + OADC, 7 days); assay type: cell-based; conditions: Mycobacterium avium, 101, 168 h
# [12] = test system: E. coli ATCC 25922 + PMBN (permeabilized); assay: MIC, spectrum of activity; assay type: cell-based; conditions: Escherichia coli, ATCC25922
# [13] = test system: S. aureus ATCC 29213; assay: MIC, spectrum of activity; assay type: cell-based; conditions: Staphylococcus aureus, ATCC29213
# [14] = test system: S. pyogenes ATCC 19615; assay: MIC, spectrum of activity; assay type: cell-based; conditions: Streptococcus pyogenes, ATCC19615
# [15] = test system: S. pneumoniae ATCC 49619; assay: MIC, spectrum of activity; assay type: cell-based; conditions: Streptococcus pneumoniae, ATCC49619
# [16] = test system: M. intracellulare 1956; assay: MIC, Middlebrook medium (7H9 + OADC, 7 days); assay type: cell-based; conditions: Mycobacterium intracellulare, 1956, 168 h
# [17] = test system: P. aeruginosa ATCC 35151; assay: MIC, spectrum of activity; assay type: cell-based; conditions: Pseudomonas aeruginosa, ATCC35151
# [18] = test system: M. chelonae (n = 11) clinical isolates; assay: MIC against rapid-growing NTM clinical isolates; assay type: cell-based; conditions: for MIC range: M. chelonae (n = 11); for MIC90: Mycobacteroides chelonae
# [19] = test system: mycolic acid transfer in Mabs ATCC19977; assay: Metabolic labeling with [14C]acetate; assay type: cell-based, M. abscessus; conditions: 2x and 10x MIC
# [20] = test system: M. abscessus (n = 20) clinical isolates; assay: MIC against rapid-growing NTM clinical isolates; assay type: cell-based; conditions: for MIC range: M. abscessus (n = 20); for MIC90: Mycobacteroides abscessus
# [21] = test system: Mtb intact cells and inverted membrane vesicles; assay type: cell-based, M. tuberculosis
# [22] = test system: M. fortuitum (n = 11) clinical isolates; assay: MIC against rapid-growing NTM clinical isolates; assay type: cell-based; conditions: for MIC range: M. fortuitum (n = 11); for MIC90: Mycolicibacterium fortuitum
# [23] = test system: Other NTM (n = 12); assay: MIC against rapid-growing NTM clinical isolates; assay type: cell-based; conditions: for MIC range: Other NTM (n = 12)
# [24] = test system: M. peregrinum ATCC 700686; assay: MIC, broth microdilution with resazurin (MHB, 3 days); assay type: cell-based; conditions: Mycolicibacterium peregrinum, ATCC700686
# [25] = test system: CYP3A; assay: CYP inhibition in human liver microsomes; assay type: in vitro ADME
# Description: as §1
# [26] = target: T1, CYP2B6 (Homo sapiens, UniProt P20813); assay: CYP inhibition in human liver microsomes; assay type: in vitro ADME
# T1 construct: incubated with human liver microsomes in buffer containing 2 mM NADPH and probe substrate; from tissue; host or cells: human liver microsomes
# T1 sequence (P20813 1-491): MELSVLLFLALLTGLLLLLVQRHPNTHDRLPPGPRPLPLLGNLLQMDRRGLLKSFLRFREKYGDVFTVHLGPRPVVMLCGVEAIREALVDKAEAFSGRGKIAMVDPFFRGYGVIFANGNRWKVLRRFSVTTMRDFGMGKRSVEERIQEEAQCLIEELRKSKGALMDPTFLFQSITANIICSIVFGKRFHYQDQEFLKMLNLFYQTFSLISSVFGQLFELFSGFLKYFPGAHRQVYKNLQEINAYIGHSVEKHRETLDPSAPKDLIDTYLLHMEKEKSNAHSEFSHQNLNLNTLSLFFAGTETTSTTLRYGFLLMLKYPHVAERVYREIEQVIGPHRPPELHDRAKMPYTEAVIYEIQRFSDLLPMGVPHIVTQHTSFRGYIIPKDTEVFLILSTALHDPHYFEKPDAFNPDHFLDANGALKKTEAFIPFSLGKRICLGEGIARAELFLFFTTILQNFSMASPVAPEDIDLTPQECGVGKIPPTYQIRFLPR
# Description: as §1
# [27] = test system: M. abscessus 21; assay: MIC in MHB versus 7H9+OADC; assay type: cell-based
# [28] = test system: M. chimaera 1502055; assay: MIC, Middlebrook medium (7H9 + OADC, 7 days); assay type: cell-based; conditions: 1502055, 168 h
# [29] = HepG2 cytotoxicity, 72 h; assay type: cell-based; conditions: human, HepG2 cells, HepG2, 72 h, read-out: HepG2 cytotox., IC50
# Description: as §1
# [30] = test system: M. abscessus 79; assay: MIC in MHB versus 7H9+OADC; assay type: cell-based
# [31] = test system: M. abscessus 1; assay: MIC in MHB versus 7H9+OADC; assay type: cell-based
# [32] = test system: C. albicans ATCC 10231; assay: MIC, spectrum of activity; assay type: cell-based; conditions: Candida albicans, ATCC10231
# [33] = test system: rapid-growing NTM; assay: MIC against rapid-growing NTM; assay type: cell-based; conditions: read-out: MIC values against rapid-growing NTM
# [34] = test system: M. avium complex (MAC); assay: MIC against MAC; assay type: cell-based; conditions: Mycobacterium avium, read-out: MIC against MAC
# [35] = assay type: cell-based
# [36] = test system: Mabs 21; assay: Time-kill assay; assay type: cell-based, M. abscessus; conditions: 10x MIC
# [37] = test system: Anaerobes (n > 20 strains); assay: organism not typed; assay type: cell-based
# [38] = M. abscessus 21, 7H9 + OADC (5 mg/mL albumin)
# [39] = M. abscessus 79, 7H9 + OADC (5 mg/mL albumin)
# [40] = M. abscessus 1, 7H9 + OADC (5 mg/mL albumin)
smiles,measurement,setting,value
CC1CC(C(=O)Nc2nc3c(F)cc(F)cc3s2)CC(C)(C)C1 (centres unmarked) [CRS400153],MIC,[1],> 64 µg/mL
same,MIC against M. abscessus,[2],0.5 µg/mL
same,MIC,[3],> 64 µg/mL
same,MIC,[4]; 168 h,1 µg/mL
same,MIC,[5],0.25 µg/mL
same,MIC,[6],0.5 µg/mL
same,MIC,[7],0.25 µg/mL
same,Protein (serum) binding,[8],>95%
same,MIC,[9],0.5 µg/mL
same,solubility at 24 h,[10],3 µM
same,MIC,[11],16 µg/mL
same,MIC,[12],> 64 µg/mL
same,MIC,[13],> 64 µg/mL
same,MIC,[14],> 64 µg/mL
same,MIC,[15],8 µg/mL
same,MIC,[16],8 µg/mL
same,MIC,[17],> 64 µg/mL
same,MIC range,[18],0.5 to 1 µg/mL
same,MIC90,[18],1 µg/mL
same,effect on mycolic acid transfer to arabinogalactan and trehalose dimycolates,[19],concentration-dependent inhibition of mycolic acid transfer
same,MIC range,[20],0.5 to 2 µg/mL
same,MIC90,[20],1 µg/mL
same,effect on membrane potential and electrochemical pH gradient,[21],no effect
same,MIC range,[22],0.5–0.5 μg/mL
same,MIC90,[22],0.5 µg/mL
same,MIC90,[23],1 µg/mL
same,MIC range,[23],0.25 to 1 µg/mL
same,MIC,[24],0.12 µg/mL
CC12CCCC(C(=O)Nc3nc4ccc(OC(F)(F)F)cc4s3)(CCC1)C2 [CRS400359],MIC,[1],> 64 µg/mL
same,inhibition at 10 µM,[25],0%
same,inhibition at 10 µM,[26],30%
same,MIC,[3],> 64 µg/mL
same,MIC,[4]; 168 h,0.5 µg/mL
same,MIC,[5],0.12 µg/mL
same,MIC,[6],≤ 0.06 µg/mL
same,MIC,[7],0.12 µg/mL
same,Protein (serum) binding,[8],>95%
same,MIC,[9],≤ 0.06 µg/mL
same,solubility at 24 h,[10],< 3 µM
same,MIC,[11],2 µg/mL
same,MIC,[12],> 64 µg/mL
same,MIC,[13],> 64 µg/mL
same,MIC,[27]; [38],2 µg/mL
same,MIC,"[27]; M. abscessus 21, MHB",0.06 µg/mL
same,MIC,[28],2 µg/mL
same,MIC,[14],> 64 µg/mL
same,MIC,[15],32 µg/mL
same,MIC,[16],2 µg/mL
same,MIC,[17],64 µg/mL
same,MIC range,[18],0.25 to 0.5 µg/mL
same,MIC90,[18],0.25 µg/mL
same,IC50 at 72 h,[29],10 µM
same,IC50 at 72 h,[29]; value in brackets,4 µg/mL
same,MIC range,[20],0.06 to 2 µg/mL
same,MIC90,[20],0.25 µg/mL
same,MIC,[30]; [39],0.25 µg/mL
same,MIC,"[30]; M. abscessus 79, MHB",0.06 µg/mL
same,MIC,[31]; [40],1 µg/mL
same,MIC,"[31]; M. abscessus 1, MHB",0.06 µg/mL
same,MIC,[32],64 µg/mL
same,MIC range,[22],0.06 to 1 µg/mL
same,MIC90,[22],1 µg/mL
same,MIC90,[23],0.5 µg/mL
same,MIC range,[23],0.12 to 2 µg/mL
same,MIC,[24],0.12 µg/mL
CC12CCCC(C(=O)Nc3nc4cc(Cl)cc(Cl)c4s3)(CCC1)C2 [CRS400393],MIC,[1],64 µg/mL
same,inhibition at 10 µM,[25],26%
same,inhibition at 10 µM,[26],39%
same,MIC,[3],> 64 µg/mL
same,MIC,[4]; 168 h,≤ 0.12 µg/mL
same,MIC,[4]; read-out: MIC against Mtb,≤ 0.12 µg/mL
same,MIC,[5],0.03 µg/mL
same,MIC,[6],0.03 µg/mL
same,MIC,[7],0.06 µg/mL
same,MIC,[33],0.03 to 0.5 µg/mL
same,Protein (serum) binding,[8],>95%
same,MIC,[9],0.03 µg/mL
same,solubility at 24 h,[10],< 3 µM
same,MIC,[11],2 µg/mL
same,MIC,[12],> 64 µg/mL
same,MIC,[13],> 64 µg/mL
same,MIC,[27]; [38],1 µg/mL
same,MIC,"[27]; M. abscessus 21, MHB",0.03 µg/mL
same,MIC,[28],1 µg/mL
same,MIC,[14],> 64 µg/mL
same,MIC,[15],32 µg/mL
same,MIC,[16],2 µg/mL
same,MIC,[17],64 µg/mL
same,MIC,[34],1 to 2 µg/mL
same,interaction when combined with other antimycobacterial agents,[35],additivity and no antagonism
same,MIC range,[18],0.12–0.12 μg/mL
same,MIC90,[18],0.12 µg/mL
same,IC50 at 72 h,[29],> 10 µM
same,IC50 at 72 h,[29]; value in brackets,> 4 µg/mL
same,MIC range,[20],≤ 0.03 to 0.25 µg/mL
same,MIC90,[20],0.25 µg/mL
same,"time-kill kinetics, result in words",[36],bactericidal activity
same,drop in Mabs in time-kill assay,[36]; after 5 days,2 Log10 CFU
same,effect against Mabs in time-kill assay,[36]; for 3 days,bacteriostatic
same,MIC,[30]; [39],0.5 µg/mL
same,MIC,"[30]; M. abscessus 79, MHB",0.03 µg/mL
same,MIC,[31]; [40],1 µg/mL
same,MIC,"[31]; M. abscessus 1, MHB",0.06 µg/mL
same,MIC,[32],> 64 µg/mL
same,MIC range,[22],≤ 0.03 to 0.5 µg/mL
same,MIC90,[22],0.25 µg/mL
same,MIC90,[23],0.5 µg/mL
same,MIC range,[23],0.12 to 0.5 µg/mL
same,MIC,[24],0.03 µg/mL
same,MIC,[37],> 32 µg/mL
